# From US20140370067A1, “Method and applicator for the perioperative disinfection of medical instruments to be inserted through non-natural openings” (priority 2012, published 2014)
# Assay: Effectiveness and irritation of lower octenidine concentration in gel formulation (statement in description)
# Conditions: concentration of 0.05% octenidine, compared with common 0.1%
compound,measurement,value
"CCCCCCCCN=c1ccn(CCCCCCCCCCn2ccc(=NCCCCCCCC)cc2)cc1 [octenidine, 1,1′-(1.1 O-decandiyl) to [4-(octylamino)pyridinium]-dichloride]",effectiveness,sufficiently good effectiveness
same,irritation,lower irritation
